Results as given in ChEMBL document CHEMBL1201862, “PubChem BioAssay data set” (2004).
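A five-concentration, 48-hour dose response in 96-well plates underlies each endpoint, interpolated linearly between surrounding concentrations. GI50 = concentration required for 50% inhibition of growth.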 Calls of active or inactive are those of the source. Rule as the data show it: active = GI50 up to about 1.1 µM and inactive = higher.

Assays:
Assay in all cases: NCI tumour cell line growth inhibition, 48 h
[1] = tested on: XF498
[2] = tested on: DMS-273
[3] = tested on: LXFL 529
[4] = tested on: KM-20L2
[5] = tested on: SNB-78
[6] = tested on: DMS-114
[7] = tested on: DLD-1
[8] = tested on: HOP-18
[9] = tested on: RXF 631

Structure (SMILES)	GI50 [1]	GI50 [2]	GI50 [3]	GI50 [4]	GI50 [5]	GI50 [6]	GI50 [7]	GI50 [8]	GI50 [9]
CCOC(=O)/C(=C/c1ccc(OC)cc1)N(CC)CC	> 100 µM (inactive)	> 100 µM (inactive)	> 100 µM (inactive)	> 100 µM (inactive)	34.5 µM (inactive)	> 100 µM (inactive)	–	–	–
N[C@H](C(=O)O)[C@H](Cl)CC(=O)O	> 100 µM (inactive)	> 100 µM (inactive)	> 100 µM (inactive)	> 100 µM (inactive)	> 100 µM (inactive)	> 100 µM (inactive)	> 100 µM (inactive)	> 100 µM (inactive)	–
O=C1SC(c2ccccc2)(c2ccccc2)c2ccccc21	> 100 µM (inactive)	> 100 µM (inactive)	> 100 µM (inactive)	46.8 µM (inactive)	> 100 µM (inactive)	26 µM (inactive)	52.8 µM (inactive)	> 100 µM (inactive)	–
COC(=O)C1C(OCc2ccccc2)C2CCC1(OC)C=C2C (centres undefined)	> 45.1 µM (inactive)	> 55.3 µM (inactive)	59 µM (inactive)	> 100 µM (inactive)	> 100 µM (inactive)	> 57.1 µM (inactive)	> 100 µM (inactive)	> 100 µM (inactive)	–
c1ccc2c(c1)cc(C1NCCc3nc[nH]c31)c1ccccc12 (centres undefined)	22.5 µM (inactive)	29.7 µM (inactive)	41.3 µM (inactive)	56.5 µM (inactive)	> 86.5 µM (inactive)	> 47.2 µM (inactive)	63.8 µM (inactive)	> 62.1 µM (inactive)	50.8 µM (inactive)
CSc1ccc(/C=C2\CNC/C(=C\c3ccc(SC)cc3)C2=O)cc1	8 µM (inactive)	–	21.2 µM (inactive)	–	–	34 µM (inactive)	–	–	22.6 µM (inactive)
[N-]=[N+]=NC1(c2ccccc2)C(=O)C(Cl)=C(c2ccccc2)N(c2ccccc2)C1=O (centres undefined)	–	> 100 µM (inactive)	91.6 µM (inactive)	> 100 µM (inactive)	31.4 µM (inactive)	46.2 µM (inactive)	> 100 µM (inactive)	> 100 µM (inactive)	–
Cc1nc(=O)[nH]c2[nH][nH]c(=O)c12	–	–	> 100 µM (inactive)	–	–	> 100 µM (inactive)	–	> 100 µM (inactive)	–
C=CC[P@]1(=O)O[C@H](c2ccccc2)[C@H](C)N1C	–	> 100 µM (inactive)	> 100 µM (inactive)	–	> 100 µM (inactive)	> 100 µM (inactive)	> 100 µM (inactive)	79.1 µM (inactive)	–
O=C(CCc1n[nH]c(=S)o1)Nc1ccc(Cl)cc1Cl	–	30.8 µM (inactive)	> 100 µM (inactive)	> 100 µM (inactive)	> 100 µM (inactive)	> 100 µM (inactive)	> 100 µM (inactive)	> 100 µM (inactive)	> 100 µM (inactive)
FC(F)(F)C1(Cl)C(c2ccccc2)=C1c1ccccc1	13.6 µM (inactive)	14.3 µM (inactive)	13.4 µM (inactive)	16.2 µM (inactive)	15.6 µM (inactive)	12.9 µM (inactive)	14.8 µM (inactive)	20.7 µM (inactive)	15.1 µM (inactive)
O=C1C=CC(=O)c2c1ccc1c3ccccc3n(-c3ccccc3)c21	0.535 µM (active)	15.2 µM (inactive)	3.53 µM (inactive)	17 µM (inactive)	20.3 µM (inactive)	16.9 µM (inactive)	2.26 µM (inactive)	7.82 µM (inactive)	25.4 µM (inactive)
COc1cc2c(cc1OC)-c1c3cc(O)ccc3nn[n+]1CC2	> 100 µM (inactive)	> 100 µM (inactive)	> 100 µM (inactive)	> 100 µM (inactive)	> 100 µM (inactive)	> 100 µM (inactive)	> 100 µM (inactive)	> 100 µM (inactive)	–
O=C1NC2(CCCC2)C(=O)C12CCCC2	> 100 µM (inactive)	> 100 µM (inactive)	> 100 µM (inactive)	–	> 100 µM (inactive)	–	> 100 µM (inactive)	> 100 µM (inactive)	> 100 µM (inactive)
CC(=O)N(C)OC(=O)CC(=O)c1ccccc1	> 100 µM (inactive)	> 100 µM (inactive)	> 100 µM (inactive)	> 100 µM (inactive)	> 100 µM (inactive)	> 100 µM (inactive)	> 100 µM (inactive)	–	> 100 µM (inactive)
COc1ccccc1NC(=O)C1=C(C)NC(C)=C(C(=O)Nc2ccccc2OC)C1c1ccc(C2C(C(=O)Nc3ccccc3OC)=C(C)NC(C)=C2C(=O)Nc2ccccc2OC)cc1	2.21 µM (inactive)	2.32 µM (inactive)	1.89 µM (inactive)	1.71 µM (inactive)	4.16 µM (inactive)	3.52 µM (inactive)	1.22 µM (inactive)	18 µM (inactive)	3.46 µM (inactive)
CC(C)(C)c1cc(C=C(C#N)C#N)cc(C(C)(C)C)c1O [TYRPHOSTIN A9]	0.776 µM (active)	0.736 µM (active)	0.518 µM (active)	4.61 µM (inactive)	–	0.179 µM (active)	0.828 µM (active)	–	–
N#Cc1ccccc1Sc1ccccc1N	92 µM (inactive)	> 100 µM (inactive)	61.5 µM (inactive)	–	> 100 µM (inactive)	49.1 µM (inactive)	93.1 µM (inactive)	27 µM (inactive)	–
N#CC1(Cc2ccccc2Cl)c2ccccc2C=CN1C(=O)c1ccccc1 (centres undefined)	40.1 µM (inactive)	> 100 µM (inactive)	43.1 µM (inactive)	> 100 µM (inactive)	> 100 µM (inactive)	96.8 µM (inactive)	–	> 100 µM (inactive)	–
CC(C)OP(=O)(OC(C)C)/C(=N/Nc1ccc([N+](=O)[O-])cc1)NNC(=O)c1ccccc1	24.8 µM (inactive)	> 10 µM (inactive)	20 µM (inactive)	48.4 µM (inactive)	24.4 µM (inactive)	21.8 µM (inactive)	39.2 µM (inactive)	–	–
COc1cc2c(c(OC)c1OC)-c1ccc(SC)c(=O)cc1[C@@H](NC(=O)c1ccc(OC(C)=O)cc1)CC2	0.0169 µM (active)	0.01 µM (active)	0.0158 µM (active)	0.0189 µM (active)	0.00451 µM (active)	–	0.0323 µM (active)	–	0.0275 µM (active)
CN(C(=O)/C=C/c1ccccc1)C1C2CN3CCC(O2)C13 (centres undefined)	> 100 µM (inactive)	> 100 µM (inactive)	> 100 µM (inactive)	> 100 µM (inactive)	> 100 µM (inactive)	> 100 µM (inactive)	> 100 µM (inactive)	> 100 µM (inactive)	–
